Data reported in ChEMBL document CHEMBL6114971, “Design, synthesis and biological evaluation of benzo[b]thiophene analogues as novel ferroptosis inhibitor that inhibit fibrosarcoma cell proliferation” (Bioorg Med Chem, 2025).
Activity calls are given as the source filed them. No cut-off for these calls is given here.

Columns and labels:
HT-1080 [1] = test: Antiproliferative activity against human HT-1080 cells measured after 72 hrs by MTT assay; format: functional, cell-based; conditions: HT-1080, 72 h
MGC-803 = test: Antiproliferative activity against human MGC-803 cells measured after 72 hrs by MTT assay; format: functional, cell-based; conditions: MGC-803, 72 h
4T1 = test: Antiproliferative activity against mouse 4T1 cells measured after 72 hrs by MTT assay; format: functional, cell-based; conditions: 4T1, 72 h
A549 = test: Antiproliferative activity against human A549 cells measured after 72 hrs by MTT assay; format: functional, cell-based; conditions: A549, 72 h
HT-1080 [2] = test: Antiproliferative activity against human HT-1080 cells measured after 72 hrs in presence of ferroptosis inhibitor Fer-1 by MTT assay; format: functional, cell-based; conditions: HT-1080, 72 h
[3] = Selectivity ratio of IC50 for antiproliferative activity against human HT-1080 cells in presence of ferroptosis inhibitor Fer-1 to IC50 for antiproliferative activity against human HT-1080 cells; format: functional
[4] = biological target: T1, Phospholipid hydroperoxide glutathione peroxidase GPX4 (Homo sapiens) (UniProt P36969); test: Inhibition of GPX4 activity in human HT-1080 cells assessed as down regulation of GPX4 level at 2 uM measured after 24 hrs by Western blotting analysis; format: cell-based
T1 sequence (whole entry): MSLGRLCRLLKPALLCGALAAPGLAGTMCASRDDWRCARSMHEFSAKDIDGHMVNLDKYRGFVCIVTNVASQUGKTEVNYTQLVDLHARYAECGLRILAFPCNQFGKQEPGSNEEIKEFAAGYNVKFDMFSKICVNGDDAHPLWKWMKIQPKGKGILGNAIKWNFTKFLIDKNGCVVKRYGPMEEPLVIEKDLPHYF

[5] = Selectivity index, ratio of IC50 for human GES1 cells to IC50 for human HT-1080; format: toxicity; conditions: GES1 cells versus HT-1080 cells, read-out: Ratio IC50
[6] = Selectivity index, ratio of IC50 for HUVEC to IC50 for human HT-1080; format: toxicity; conditions: HUVEC versus HT-1080 cells, read-out: Ratio IC50
[7] = Cytotoxicity against HUVEC measured after 72 hrs by MTT assay; format: toxicity, cell-based; conditions: human
[8] = Cytotoxicity against human GES1 cells measured after 72 hrs by MTT assay; format: toxicity, cell-based
HT-1080 [9] = test: Reduction in GPX4 mRNA level in human HT-1080 cells at 2 uM measured after 24 hrs by qRT-PCR analysis; format: functional, cell-based
HT-1080 [10] = test: Induction of ROS generation in human HT-1080 cells assessed as intracellular ROS level at 2 uM measured after 24 hrs by DCFH-DA probe based flow cytometry (reference value: 33%); format: functional

Structure (SMILES) | IC50 (HT-1080 [1]) [µM] | IC50 (MGC-803) [µM] | IC50 (4T1) [µM] | IC50 (A549) [µM] | IC50 (HT-1080 [2]) [µM] | Ratio IC50 [3] | inhibition [4] | selectivity ratio [5] | selectivity ratio [6] | IC50 at 72 h [7] [µM] | IC50 at 72 h [8] [µM] | Activity (HT-1080 [9]) | Activity (HT-1080 [10]) [%]
O=C(CCl)N(Cc1cc2ccccc2s1)c1ccccc1 | 18 | 6.73 | > 20 | 15.4 | – | – | – | – | – | – | – | – | –
COc1cc(N(Cc2ccc3ccccc3n2)C(=O)c2noc(C)c2[N+](=O)[O-])cc(OC)c1OC | > 20 | > 20 | 12.9 | 18.9 | – | – | – | – | – | – | – | – | –
COc1cc(N(Cc2ccoc2)C(=O)CCl)cc(OC)c1OC | 4.21 | > 20 | 5.97 | > 20 | – | – | – | – | – | – | – | – | –
O=C(CCl)N(Cc1cc2ccccc2[nH]1)c1ccccc1 | 15.3 | 13.8 | > 20 | > 20 | – | – | – | – | – | – | – | – | –
CCOc1ccccc1-n1c(C(C)N2CCN(C(=O)COc3ccc(Cl)cc3)CC2)nc2ccccc2c1=O (configuration not stated) [ERASTIN] | 3.54 | > 20 | 12.7 | > 20 | – | – | – | – | – | – | – | – | –
COc1ccc(N(Cc2csc3ccccc23)C(=O)CCl)cc1Cl | 3.99 | > 20 | 7.77 | > 20 | – | – | – | – | – | – | – | – | –
COc1ccc(N(Cc2csc3ccccc23)C(=O)c2noc(C)c2[N+](=O)[O-])cc1OC | 5.25 | > 20 | 3.48 | > 20 | 15.6 | 2.98 | Active; Significant Down Regulation Observed | 16.6 | 6.06 | 31.8 | 87.3 | – | –
COc1ccc(N(Cc2csc3ccccc23)C(=O)CCl)cc1 | 14 | 16.9 | > 20 | > 20 | – | – | – | – | – | – | – | – | –
COc1cc(N(Cc2ccsc2)C(=O)c2noc(C)c2[N+](=O)[O-])cc(OC)c1OC | > 20 | > 20 | 14.4 | > 20 | – | – | – | – | – | – | – | – | –
O=C(CCl)N(Cc1csc2ccccc12)c1cccc(C(F)(F)F)c1 | 11.1 | 7.95 | > 20 | 19.3 | – | – | – | – | – | – | – | – | –
O=C(CCl)N(Cc1ccoc1)c1ccc(F)cc1 | 6.06 | 16.7 | 12.1 | > 20 | – | – | – | – | – | – | – | – | –
COc1cc(N(C)Cc2csc3ccccc23)cc(OC)c1OC | – | – | – | – | – | – | – | – | – | – | – | inactive | –
COc1ccc(N(Cc2cc3ccccc3[nH]2)C(=O)CCl)cc1 | 11.8 | > 20 | 18.8 | > 20 | – | – | – | – | – | – | – | – | –
CCCCN(Cc1cc2ccccc2s1)C(=O)CCl | 3.73 | > 20 | 5.31 | > 20 | 6 | 1.5 | Active; Significant Down Regulation Observed | 30.9 | 2.15 | 8.58 | 123 | – | –
O=C(CCl)N(Cc1cc2ccccc2s1)c1ccc(F)cc1 | 10.4 | 7.09 | > 20 | > 20 | – | – | – | – | – | – | – | – | –
O=C(CCl)N(Cc1ccsc1)c1ccccc1 | 4.73 | 19.8 | 7.34 | > 20 | – | – | – | – | – | – | – | – | –
O=C(CCl)N(Cc1cc2ccccc2s1)c1cccc(C(F)(F)F)c1 | 13.6 | 12 | 17.8 | > 20 | – | – | – | – | – | – | – | – | –
O=C(CCl)N(Cc1c[nH]c2ccccc12)c1ccccc1 | 7.86 | 13.2 | > 20 | > 20 | – | – | – | – | – | – | – | – | –
COc1ccc(N(Cc2cc3ccccc3s2)C(=O)CCl)cc1OC | 8.98 | 1.8 | > 20 | 16.9 | – | – | – | – | – | – | – | – | –

Structure (SMILES) | IC50 (HT-1080 [1]) [µM] | IC50 (MGC-803) [µM] | IC50 (4T1) [µM] | IC50 (A549) [µM] | IC50 (HT-1080 [2]) [µM] | Ratio IC50 [3] | inhibition [4] | selectivity ratio [5] | selectivity ratio [6] | IC50 at 72 h [7] [µM] | IC50 at 72 h [8] [µM] | Activity (HT-1080 [9]) | Activity (HT-1080 [10]) [%]
COc1ccc(N(Cc2c[nH]c3ccccc23)C(=O)CCl)cc1 | 12.4 | 11.7 | 15.8 | > 20 | – | – | – | – | – | – | – | – | –
COC(=O)c1ccc([C@H]2c3[nH]c4ccccc4c3C[C@H](C(=O)OC)N2C(=O)CCl)cc1 | – | 12.2 | 18.4 | > 20 | 2.28 | 1.88 | Active | 51.5 | 26.6 | 32.1 | 62.3 | Active | 87.6
COc1ccc(N(Cc2csc3ccccc23)C(=O)CCl)cc1OC | 4.22 | 2.42 | > 20 | 15.2 | – | – | – | – | – | – | – | – | –
O=C(CCl)N(Cc1ccsc1)c1ccc(F)cc1 | 5.21 | 15.1 | > 20 | > 20 | – | – | – | – | – | – | – | – | –
COc1cc(N(Cc2csc3ccccc23)C(=O)c2noc(C)c2[N+](=O)[O-])cc(OC)c1OC | > 20 | > 20 | 10.2 | > 20 | – | – | – | – | – | – | – | – | –
COc1ccc(N(Cc2cc3ccccc3s2)C(=O)CCl)cc1 | > 20 | 10.1 | > 20 | 18.3 | – | – | inactive | – | – | – | – | – | –
Cc1onc(C(=O)N(Cc2csc3ccccc23)c2ccc(F)cc2)c1[N+](=O)[O-] | > 20 | > 20 | 10.2 | > 20 | – | – | – | – | – | – | – | – | –
Cc1onc(C(=O)N(Cc2csc3ccccc23)c2ccccc2)c1[N+](=O)[O-] | > 20 | > 20 | > 20 | > 20 | – | – | – | – | – | – | – | – | –
O=C(CCl)N(Cc1csc2ccccc12)c1ccc(F)cc1 | 12.3 | 13.4 | > 20 | > 20 | – | – | – | – | – | – | – | – | –
O=C(CCl)N(Cc1c[nH]c2ccccc12)c1ccc(F)cc1 | 7.21 | 9.09 | > 20 | 16 | – | – | – | – | – | – | – | – | –
O=C(CCl)N(Cc1ccccc1)Cc1csc2ccccc12 | > 20 | > 20 | 8.52 | > 20 | – | – | – | – | – | – | – | – | –
COc1cc(N(Cc2ccsc2)C(=O)CCl)cc(OC)c1OC | 3.61 | 14.1 | 11.2 | > 20 | 6.3 | 1.74 | Active; Significant Down Regulation Observed | 17.3 | 4.27 | 15.4 | 62.3 | – | –
O=C(CCl)N(Cc1ccoc1)c1ccccc1 | 14.2 | > 20 | 14.1 | > 20 | – | – | – | – | – | – | – | – | –
O=C(CCl)N(Cc1cc2ccccc2[nH]1)c1ccc(F)cc1 | 9.26 | 7.32 | 12.4 | > 20 | – | – | – | – | – | – | – | – | –
COc1ccc(N(Cc2c[nH]c3ccccc23)C(=O)CCl)cc1OC | 15 | 7.19 | > 20 | 16.7 | – | – | – | – | – | – | – | – | –
O=C(CCl)N(Cc1csc2ccccc12)c1ccccc1 | 11.2 | 10.3 | > 20 | > 20 | – | – | – | – | – | – | – | – | –
COc1cc(N(Cc2ccoc2)C(=O)c2noc(C)c2[N+](=O)[O-])cc(OC)c1OC | > 20 | > 20 | > 20 | > 20 | – | – | – | – | – | – | – | – | –
COc1cc(N(Cc2cc3ccccc3s2)C(=O)CCl)cc(OC)c1OC | 3.59 | 2.08 | > 20 | > 20 | 4.13 | 1.15 | Active; Significant Down Regulation Observed | 18.4 | 2.8 | 10.5 | 68.8 | – | –
